The test deals with T1, Lysine-specific demethylase 4C (Homo sapiens, UniProt Q9H3R0).
T1 sequence (Q9H3R0 whole entry): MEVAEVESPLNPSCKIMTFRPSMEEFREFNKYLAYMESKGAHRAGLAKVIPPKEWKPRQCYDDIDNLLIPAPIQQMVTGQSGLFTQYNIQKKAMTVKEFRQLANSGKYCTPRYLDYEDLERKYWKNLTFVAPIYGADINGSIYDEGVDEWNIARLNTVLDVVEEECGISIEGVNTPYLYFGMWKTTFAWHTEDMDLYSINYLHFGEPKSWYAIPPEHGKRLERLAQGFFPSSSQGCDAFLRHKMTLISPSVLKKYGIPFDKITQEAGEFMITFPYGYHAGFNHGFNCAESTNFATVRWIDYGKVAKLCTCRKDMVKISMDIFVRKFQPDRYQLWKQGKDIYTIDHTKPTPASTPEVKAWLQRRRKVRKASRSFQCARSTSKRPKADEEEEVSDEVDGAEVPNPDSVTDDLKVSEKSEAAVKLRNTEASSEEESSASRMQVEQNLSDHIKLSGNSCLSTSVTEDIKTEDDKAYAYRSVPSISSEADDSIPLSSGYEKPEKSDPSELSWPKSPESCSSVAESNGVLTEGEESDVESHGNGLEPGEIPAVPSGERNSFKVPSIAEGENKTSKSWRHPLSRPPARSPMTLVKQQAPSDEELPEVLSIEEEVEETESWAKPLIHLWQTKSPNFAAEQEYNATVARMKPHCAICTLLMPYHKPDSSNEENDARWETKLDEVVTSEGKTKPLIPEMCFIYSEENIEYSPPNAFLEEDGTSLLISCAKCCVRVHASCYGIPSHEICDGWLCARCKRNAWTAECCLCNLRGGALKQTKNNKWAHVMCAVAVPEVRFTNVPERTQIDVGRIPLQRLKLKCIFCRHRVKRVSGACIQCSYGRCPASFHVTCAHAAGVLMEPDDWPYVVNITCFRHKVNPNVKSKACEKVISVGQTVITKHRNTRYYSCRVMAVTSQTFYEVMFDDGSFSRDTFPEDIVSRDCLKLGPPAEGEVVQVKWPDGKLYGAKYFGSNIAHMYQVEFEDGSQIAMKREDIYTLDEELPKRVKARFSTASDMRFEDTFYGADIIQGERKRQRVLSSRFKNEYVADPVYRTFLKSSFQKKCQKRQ
The experiment in a line: JMJD2C Assay. Here is the method: The ability of test compounds to inhibit the activity of JMJD2C was determined in 384-well plate-format under the following reaction conditions: 0.3 nM JMJD2C, 300 nM H3K9me3-biotin labeled peptide (Anaspec cat #64360), 2 μM alpha-ketoglutaric acid in assay buffer of 50 mM HEPES, pH 7.3, 0.005% Brij35, 0.5 mM TCEP, 0.2 mg/ml BSA, 50 μM sodium L-ascorbate, and 2 μM ammonium iron(II) sulfate. Reaction product was determined quantitatively by TR-FRET after the addition of detection reagent Phycolink Streptavidin-allophycocyanin (Prozyme) and Europium-anti-di-methylated histone H3 lysine 9 (H3K9me2) antibody (PerkinElmer) in the presence of 5 mM EDTA in LANCE detection buffer (PerkinElmer) at a final concentration of 50 nM and 1 nM, respectively.The assay reaction was initiated by the following: 2 μl of the mixture of 900 nM H3K9me3-biotin labeled peptide and 6 μM alpha-ketoglutaric acid with 2 μl of 11-point serial diluted inhibitor in 3% DMSO were added to each well of the plate, followed by the addition of 2 μl of 0.9 nM JMJD2C to initiate the reaction. […] Plates were read by EnVisionMultilabel Reader in TR-FRET mode (excitation at 320 nm, emission at 615 nm and 665 nm) after 1 hr incubation at room temperature. A ratio was calculated (665/615) for each well and fitted to determine inhibition constant (IC50).

Molecules are shown by their SMILES. pIC50: −log10 of the molar value.

In the case of `COc1ccc(N2CCN(C)CC2)cc1N(C)c1ccc(Oc2nc(O)c3ccncc3n2)cc1C` [US10202381, Example 145], the negative-log IC50 (pIC50) was > 7.00.

Take `Cc1cc(Oc2nc(O)c3ccncc3n2)ccc1N(C)c1cc(N2CCN(C)CC2)ccc1C` [US10202381, Example 147]: the pIC50 was > 7.00.

The values above are taken from BindingDB's records for patent US10202381 (Celgene Quanticel Research Inc, 2019).
